The source of these data is US20040091479A1, “T-cell epitope of the papillomavirus l1 and e7 protein and use thereof in diagnostics and therapy” (priority 2000, published 2004).

Data set [1] deals with HPV18 CVLP-stimulated human T cells. In words: Restimulating HPV18 CVLP-stimulated T cells with BLCL presenting Q38, Q39, Q46 or Q47 (example 13). Conditions: conclusion from FIG. 12 top right. Type of data set: cell-based. On the procedure: In analogy with example 6, human T cells (4×10^5) derived from a non-HLA-typed blood donor were stimulated with HPV18L1ΔCDIE71-53DI CVLPs and HPV18L1ΔCDIE71-60DI CVLPs and harvested.
The T cells were then restimulated, at 37° C. and in 100 μl of medium, with in each case 1 μg of peptide Q38, Q39, Q46 or Q47/ml and 10^5 antigen-presenting cells (donor-identical BLCL) in the presence of 10 IU of IL2/ml. Cells which were only incubated with buffer served as the negative control while cells which were incubated with the HPV18 L1 peptide pool or the E7 peptide pool served as positive controls.
(§1) 1 μl of monensin was added after an hour. The cells were then incubated at 37° C. for a further 5 hours. After that, the cells were fixed and permeabilized and stained with α-human CD8/APC, with α-human CD4/PerCP and with α-human IFNγ/FITC. The labeling of the cells was examined in a FACScan Calibur and the results of the measurements were analyzed using Cellquest software.

In data set [2] the test system is CVLP-stimulated T cells (CD4-positive). In words: Restimulating HPV16 CVLP-stimulated T cells with BLCL presenting HPV16 peptide pools (example 7). Conditions: peptide common to two reactive HPV16 pools; CD4/IFNγ. Type of data set: cell-based, human. An excerpt: (§2) In analogy with example 6, human T cells derived from a non-HLA-typed blood donor were stimulated with HPV16L1ΔC*E71-55 CVLPs and harvested.
The 20mer peptides P1 to 51 were assembled into peptide pools A to H and 1 to 7, respectively, in accordance with the following matrix
The T cells were then restimulated as described in example 6, fixed, permeabilized and stained. The analysis also took place as described in example 6.

Data set [3] concerns peptide-stimulated CD8-positive murine T cells. Put plainly: Restimulating HPV16 L1 peptide-stimulated murine T cells with peptide-presenting JAWS cells (IFNγ FACScan). The format is cell-based, C57BL/6 mice. Conditions: for proportion of CD8-positive T cells reactive on the basis of IFNγ expression: 1 μg peptide/ml, JAWS cells, T cells of HPV16L1ΔC*E71-55 CVLP-inoculated C57BL/6 mice, FIG. 1; for T cell epitope assignment: conclusion from FIG. 1. The protocol:
Murine T cells (4×10^5) derived from HPV16L1ΔC*E71-55 CVLP-inoculated C57BL/6 mice were stimulated for 5 weeks with HPV16 L1 peptide pools at 37° C., with the weekly addition of 1 μg of each individual peptide/ml and 10^5 antigen-presenting cells (irradiated splenocytes), and harvested. The cells were subsequently restimulated, in 100 μl of medium at 37° C., with 1 μg of the peptides given on the X axis in FIG. 1/ml and 10^5 antigen-presenting cells (JAWS) in the presence of 10 IU of IL2/ml. Cells which were only incubated with buffer serve as the negative control.
After an hour, 1 μl of monensin (300 μM) was added. The cells were incubated at 37° C. for a further 5 hours. The cells were then fixed and permeabilized and stained with α-mouse CD8/PE, with α-mouse CD4/cychrome and with α-mouse interferon γ/FITC. The labeling of the cells was analyzed in a FACScan caliber and the results of the measurements were analyzed using Cellquest software.

Data set [4] has as its system peptide-stimulated murine CD8 T cells. In words: Restimulating HPV18 peptide-stimulated murine T cells with peptide-presenting RMA cells (example 16). Conditions: for reactive CD8-positive T cells (IFNγ, FACScan): RMA cells as antigen-presenting cells, FIG. 15; for T cell epitope assignment: conclusion from FIG. 15. Type of data set: cell-based. On the procedure:
In analogy with example 5, murine T cells derived from CVLP-inoculated mice were stimulated with L1 or E7 peptide pools in the added presence of antigen-presenting cells. The cells were then restimulated with the peptides given on the X axis in FIG. 15 (Q3 and Q4 in the upper part of FIG. 15 and L1474E71-8, E72-11 and E71-8 in the lower part of FIG. 15) and also antigen-presenting cells (RMA). Cells which were only incubated with buffer served as the negative control.
The experiment was also analyzed in analogy with example 5, with the reactive CD8-positive cells being determined by means of antibody staining and FACScan.

The test system of data set [5] is peptide-stimulated murine CD8-positive T cells. In words: Restimulating HPV18 peptide-stimulated murine T cells with peptide-presenting LKK cells (IFNγ FACScan). Type of data set: cell-based, C3H mice. Conditions: for proportion of CD8-positive T cells reactive on the basis of IFNγ expression: 1 μg peptide/ml, LKK cells, T cells of HPV18 CVLP-inoculated C3H mice, FIG. 3, 4; for T cell epitope assignment: conclusion from FIG. 3, 4. On the procedure:
Murine T cells (4×10^5) derived from C3H mice inoculated with HPV18 L1ΔCDIE71-53DI CVLPs and HPV18 L1ΔCDIE71-6ODI CVLPs were stimulated for 5 weeks with HPV18 L1 or E7 peptide pools at 37° C., with the weekly addition of 1 μg of each individual peptide/ml and 10^5 antigen-presenting cells (irradiated splenocytes), and harvested. The cells were then restimulated, at 37° C. and in 100 μl of medium, with 1 μg of the peptides given on the X axis in FIG. 3/ml and 10^5 antigen-presenting cells (LKK) in the presence of 10 IU of IL2/ml. Cells which were only incubated with buffer served as the negative control.
1 μl of monensin (300 μm) was added after an hour. The cells were incubated at 37° C. for a further 5 hours. The cells were then fixed and permeabilized and stained with α-mouse CD8/PE, with α-mouse CD4/cychrome and with α-mouse interferony/FITC. The labeling of the cells was analyzed in a FACScan Calibur and the results of the measurement were analyzed using Cellquest software.

The subject of data set [6] is CVLP-stimulated CD8-positive T cells. Put plainly: Restimulating HPV16 CVLP-stimulated T cells with BLCL presenting HPV16 peptide pools (example 14). Conditions: peptide common to two reactive HPV16 pools; CD8/IFNγ. The format is cell-based, human. On the procedure:
as §2
The T cells were then restimulated, at 37° C. and in 100 μl of medium, with the peptide pools from example 7 and 10^5 antigen-presenting cells (donor-identical BLCL) in the presence of 10 IU of IL2/ml. Use was made, in this connection, of quantities of the peptide pools which were such that 1 μg/ml was added in the case of each individual peptide. Cells which were only incubated with buffer served as the negative control, while cells which were incubated with the HPV16 L1 or E7 peptide pool served as positive controls.
as §1

Consider `CC[C@H](C)[C@H](NC(=O)[C@H](C)NC(=O)[C@@H](NC(=O)[C@H](CO)NC(=O)[C@H](CCC(N)=O)NC(=O)[C@@H](NC(=O)[C@H](Cc1ccccc1)NC(=O)[C@H](CCCNC(=N)N)NC(=O)[C@H](Cc1ccc(O)cc1)NC(=O)[C@@H](NC(=O)[C@H](CC(=O)O)NC(=O)[C@@H](NC(=O)[C@H](CC(C)C)NC(=O)[C@H](CO)NC(=O)[C@@H](NC(=O)[C@@H](NC(=O)[C@@H]1CCCN1C(=O)[C@@H]1CCCN1C(=O)[C@@H]1CCCN1C(=O)[C@@H]1CCCN1)[C@@H](C)O)[C@@H](C)O)C(C)C)[C@@H](C)O)C(C)C)C(C)C)C(=O)O` [Q38], for which the “T cell epitope assignment (cytotoxic)” value in data set [1] is on record as “contain cytotoxic T cell epitopes”.

On to “ASSNYFPTPSGSMVTSDAQI [P27, HPV16 L1 287-306]”, for which the “T cell epitope assignment” value in data set [2] is “contain a T helper epitope”.

On to “DMVDTGFGAMDFTTLQANKS [P19, HPV16 L1 199-218]”, for which, in data set [3], the “proportion of CD8-positive T cells reactive on the basis of IFNγ expression” value (“proportion” below) was “brought about a restimulation” and the “T cell epitope assignment” value is listed as “contain H2b-restricted cytotoxic T cell epitopes”. In addition, the “T cell epitope assignment” value in data set [2] is “contain a T helper epitope”.

Consider “FYHAGSSRLLTVGNPYFRVP [Q4, HPV18 L1 34-53]”, for which, in data set [4], the “reactive CD8-positive T cells (IFNγ, FACScan)” value (“reactive CD8-positive T cells” below) is given as “brought about a restimulation” and the “T cell epitope assignment” value is reported as “contain an H2b-restricted cytotoxic T cell epitope”.

Consider “GDSLFFYLRREQMFVRHLFN [P23, HPV16 L1 243-262]”, for which the “T cell epitope assignment” value in data set [2] is “contain a T helper epitope”.

“GDSMFFCLRREQLFARHFWN [Q23, HPV18 L1 243-262]”: in data set [5], the “proportion” value is “brought about a restimulation” and the “T cell epitope assignment” value is recorded as “contain H2k-restricted cytotoxic T cell epitopes”.

With “GMHGPKATL [L1474E71-8, HPV18 L1 474 and E7 1-8]”, in data set [4], the “reactive CD8-positive T cells” value is listed as “brought about a restimulation” and the “T cell epitope assignment” value is given as “contain an H2b-restricted cytotoxic T cell epitope”.

Regarding HGPKATLQDI [E72-11, HPV18 E7 2-11], in data set [4], the “reactive CD8-positive T cells” value is given as “brought about a restimulation” and the “T cell epitope assignment” value was “contain an H2b-restricted cytotoxic T cell epitope”.

Turning to “IFQLCKITLTADVMTYIHSM [P35, HPV16 L1 375-394]”, in data set [3], the “proportion” value is given as “brought about a restimulation” and the “T cell epitope assignment” value is recorded as “contain H2b-restricted cytotoxic T cell epitopes”.

Regarding “LELINTVIQDGDMVDTGFGA [P18, HPV16 L1 188-207]”, in data set [3], the “proportion” value is recorded as “brought about a restimulation” and the “T cell epitope assignment” value is “contain H2b-restricted cytotoxic T cell epitopes”. The “T cell epitope assignment” value in data set [2] was “contain a T helper epitope”.

With “LKKYTFWEVNLKEKFSADLD [P41, HPV16 L1 441-460]”, in data set [6], the “T cell epitope assignment” value is “contain a cytotoxic T cell epitope”.

Take MHGPKATL [E71-8, HPV18 E7 1-8]: in data set [4], the “reactive CD8-positive T cells” value is on record as “brought about a restimulation” and the “T cell epitope assignment” value is given as “contain an H2b-restricted cytotoxic T cell epitope”.

For “MLDLQPETTDLYCYEQLNDS [P45, HPV16 E7 12-31]”, the “T cell epitope assignment” value in data set [6] is recorded as “contain a cytotoxic T cell epitope”.

Take “MSLWLPSEATVYLPPVPVSK [P1, HPV16 L1 1-20]”: the “T cell epitope assignment” value in data set [6] is given as “contain a cytotoxic T cell epitope”.

“NNNKILVPKVSGLQYRVFRI [P6, HPV16 L1 56-75]”: in data set [6], the “T cell epitope assignment” value is “contain a cytotoxic T cell epitope”.

For “NTDDYVTRTSIFYHAGSSRL [Q3, HPV18 L1 23-42]”, in data set [4], the “reactive CD8-positive T cells” value was “brought about a restimulation” and the “T cell epitope assignment” value is given as “contain an H2b-restricted cytotoxic T cell epitope”.

With “PDYLQMSADPYGDSMFFCLR [Q22, HPV18 L1 232-251]”, in data set [5], the “proportion” value was “brought about a restimulation” and the “T cell epitope assignment” value is recorded as “contain H2k-restricted cytotoxic T cell epitopes”.

With “PLGRKFLLQAGMHGDTPTLH [P43, HPV16 L1 463-473 and E7 1-9]”, in data set [3], the “proportion” value is “brought about a restimulation” and the “T cell epitope assignment” value is recorded as “contain H2b-restricted cytotoxic T cell epitopes”. For the same compound, in data set [6], the “T cell epitope assignment” value is on record as “contain a cytotoxic T cell epitope”.

As to “QLCLIGCKPPIGEHWGKGSP [P15, HPV16 L1 155-174]”, the “T cell epitope assignment” value in data set [2] is “contain a T helper epitope”.

With “QPLGVGISGHPLLNKLDDTE [P11, HPV16 L1 111-130]”, the “T cell epitope assignment” value in data set [2] is given as “contain a T helper epitope”.

Turning to “SSADDLRAFQQLFLNTLSFV [Q51, HPV18 E7 78-97]”, in data set [5], the “proportion” value is given as “brought about a restimulation” and the “T cell epitope assignment” value was “contain H2k-restricted cytotoxic T cell epitopes”.

On to “STDEYVARTNIYYHAGTSRL [P3, HPV16 L1 23-42]”, for which, in data set [3], the “proportion” value is reported as “brought about a restimulation”. The “T cell epitope assignment” value in data set [3] was “contain H2b-restricted cytotoxic T cell epitopes”; in data set [6], “contain a cytotoxic T cell epitope”.

“VGNPYFRVPAGGGNKQDIPK [Q5, HPV18 L1 45-64]”: in data set [5], the “proportion” value is recorded as “brought about a restimulation” and the “T cell epitope assignment” value is reported as “contain H2k-restricted cytotoxic T cell epitopes”.

For “VTVVDTTRSTNNSLCAAIST [P31, HPV16 L1 331-350]”, the “T cell epitope assignment” value in data set [2] is recorded as “contain a T helper epitope”.

As for “WACVGVEVGRGQPLGVGISG [P10, HPV16 L1 100-119]”, the “T cell epitope assignment” value in data set [2] is recorded as “contain a T helper epitope”.

As to “YCYEQLNDSSEEEDEIDGPA [P46, HPV16 E7 23-42]”, the “T cell epitope assignment” value in data set [6] was “contain a cytotoxic T cell epitope”.

For “YIKGSGSTANLASSNYFPTP [P26, HPV16 L1 276-295]”, the “T cell epitope assignment” value in data set [2] is “contain a T helper epitope”.
